pIC50: −log10 of the molar value.
Assays:
HT-1080 xenograft tumor = HT-1080 xenograft tumor growth; format: in vivo, female Crl:CD-1 nude mice; conditions: 30 mg/kg twice a day PO, seven days
Description: Female athymic nude mice (6 weeks old, Crl:CD-1 nude mice) were obtained from Charles River Italia (Calco, Italy). HT-1080 cells (6×10^∧6 cells) were resuspended in 200 µl of PBS 1X and injected subcutaneously in the right flank of the mice. Body weight and tumor measurements (using a digital caliper) were performed twice a week. Randomization was performed on day 12 after cell injection by comparing tumor mass and treatments started on day 13 when tumors reached a median size of 246 mm^3 (range = 230–268 mm^3). SEN461 was formulated in 0.5% w/v Methocel in MilliQ water and administered PO by oral gavage twice a day at 30 mg/kg for seven consecutive days in a total of 15 animals (n = 5 for each time point). Control animals (n = 5) were administered with the vehicle for the same time period. On treatment day 19, the mice were euthanized under inhalant anesthesia with isoflurane and tumor and blood samples were collected at three different time points (1–4–8 h, n = 5 animals for each time point) after last treatment and subjected to gene expression analysis and compound quantification. All mice were maintained in a conventional-specific-pathogen-free facility according to the NIH guidelines using an approved Animal Care and Use Committee protocol. […]

[1] = test system: Myc transcriptional activation in HEK293 cells; test: Nucleolin promoter (pNucL14) luciferase reporter, HEK293; format: cell-based; conditions: HEK293, pNucL14 ± FLAG-c-Myc
Text: (§1) The generation of TCF-Luciferase and TA-Renilla reporter plasmids as well as IC50 determination and calculation was reported previously. Human AXIN1 and WNT3A cDNAs were purchased from Origene as “transfection ready” plasmids. Dominant negative TCF4 cDNA was purchased from Upstate. Luciferase reporter of the nucleolin promoter (pNucL14) and FLAG-c-Myc expressing vector were from B. Amati. Luciferase reporter of the Hes5 promoter and Notch1-IC expressing vector were from I. Screpanti. Lentiviral vectors for inducible dominant negative TCF4 (rLV-EF1-tTS, rLV-EF1-rtTA and rLV-TRE-CMV-HA-TCF4DN) were purchased from Vectalys.
(§2) Transfections were carried out using Lipofectamine 2000 (Invitrogen) according to the manufacturer’s instructions. Lentiviral expression of TCF-Luc, TA-Renilla, and the inducible dominant negative TCF4, were carried out following Vectalys instructions. For reporter assays, luciferase activities were performed as described previously.

[2] = test system: Wnt transcriptional activity in DLD1 colorectal cancer cells; test: TCF-Luciferase/TA-Renilla Wnt reporter assay in DLD1; format: cell-based; conditions: DLD1, transiently transfected
Text: as §1, §2

[3] = test system: Axin1, c-Myc, p21 protein in HT-1080 cells; test: Western blotting in HT-1080; format: cell-based, human; conditions: HT-1080, overnight
[4] = test system: Wnt transcriptional activity (TCF reporter) in U2OS cells; test: TCF-Luciferase/TA-Renilla Wnt reporter assay in U2OS; format: cell-based, human; conditions: 24 h, concentration dependent
Text: as §1, §2

[5] = test system: Notch signaling in HEK293 cells; test: Hes5 promoter luciferase reporter with Notch1-IC, HEK293; format: cell-based; conditions: HEK293, Notch1-IC stimulation, data not shown
Text: as §1, §2

HUVEC cells = test: Tube formation assay, HUVEC; format: cell-based; conditions: data not shown
Description: (§3) Soft agar assay and analysis was carried out as previously described. For scratch assay, confluent monolayer of U2OS and HT-1080 cells were subjected to scratch using a sterile pipette tip. Wounded monolayers were washed to remove debris and incubated with SEN461 at different concentrations for 20 hours. After the incubation period, images were taken under an Axiovert 200M (Zeiss) microscope equipped with a CCD camera, and the gap width was measured using MetaMorph 6.3 software (Universal Imaging Corp.) to calculate the area covered by cells (pixels unit). The tube formation assay was performed using growth factor-reduced Matrigel from BD (BD Biosciences; San Jose, CA, USA). Matrigel was thawed overnight at 4°C and was diluted (1∶1) with phenol red-free DMEM without serum. 100 µl of the diluted matrigel was used to coat the wells of a 96 well plate and was allowed to polymerize for 2 hours at 37°C. After equilibrating the gel with the complete growth medium, 15×10^3 cells were seeded in each well and incubated for 20 hours. The tube formation was monitored under a phase contrast microscope (Axiovert 200, Zeiss) and imaged using MetaMorph system (Universal Imaging Corp).

U2OS cells = test: Scratch assay (motility), U2OS; format: cell-based, human; conditions: 20 hours
Description: as §3

143B osteosarcoma cells = test: Soft agar assay (anchorage-independent growth), 143B; format: cell-based, human; conditions: lack of sensitivity up to highest concentration
Description: as §3

[6] = test system: Myc transcriptional activation in HT-1080 cells; test: Nucleolin promoter (pNucL14) luciferase reporter, HT-1080; format: cell-based, human; conditions: HT-1080, pNucL14 ± FLAG-c-Myc
Text: as §1, §2

[7] = test system: HT-1080 (fibrosarcoma) cells; test: Soft agar assay (anchorage-independent growth), HT-1080; format: cell-based, human
Description: as §3

HT-1080 cells = test: Tube formation assay, HT-1080; format: cell-based, human; conditions: HT-1080, 24 hours exposure, vs DMSO
Description: as §3, with “After equilibrating the gel with the complete growth medium, 15×10^3 cells were seeded in each well and incubated for 20 hours.” left out

COCC(=O)N1CCN(C(=O)C2CCC(Cn3c(=O)c4cc(OC)ccc4n(C)c3=O)CC2)CC1 (centres unmarked) [SEN461]
antitumor activity (tumor growth) (HT-1080 xenograft tumor): tumor stasis effect | Myc mediated activation / basal activity of nucleolin reporter [1]: did not affect | Wnt transcriptional activity (TCF-Luciferase/TA-Renilla) [2]: Concentration dependent inhibition of Wnt transcriptional activity | Axin1 protein level [3]: robust concentration dependent stabilization | CDK inhibitor p21 protein level [3]: up-regulation | c-Myc protein level [3]: down-modulation of c-Myc | TCF-dependent reporter activity (TCF-Luciferase/TA-Renilla) [4]: reduced TCF-dependent reporter activity | Notch signaling (Hes5 promoter luciferase) [5]: did not detect any transcriptional effects | tubule-formation activity (HUVEC cells): did not show any effect | cellular motility (two-dimensional scratch assay) (U2OS cells): neither U2OS nor HT-1080 cells showed inhibition of motility | pIC50 (143B osteosarcoma cells): < 4.52 | Myc mediated activation / basal activity of nucleolin reporter [6]: did not affect | pIC50 [7]: 6.11 | tubule-formation activity (HT-1080 cells): did not produce any change
